Test results from US6967196B1, “Sulfonamide compounds and uses thereof” (Bristol-Myers Squibb Company, priority 1999, dated 2005).
Structures can show the parent of a compound that is named as a salt. Where two headings read alike, the source gives them in different places.

Test system: amyloid β production in transfected H4 (human neuroglioma) cells stably expressing APP constructs
Experiment: In vitro cell-based assay of inhibitors of amyloid β production (ELISA)
Settings: transfected H4 cells stably expressing APP, approximately 16 hours incubation, amyloid β in medium by ELISA, read-out: ACTIVITY (IC50, inhibition of amyloid β production)
Procedure, shortened: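 Aβ secreted into the medium was read by sandwich ELISA (monoclonal capture for the Aβ C-terminus, polyclonal detection for the N-terminus) and calibrated on a standard curve. Before this, APP-expressing H4 cells were exposed to compound for ~16 h at an initial 10-100 μM, with actives then retested in dose-response.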

Row | SMILES | IC50 | IC50 (Homo sapiens, 16 h)
1 | O=S(=O)(c1ccc(Cl)cc1)N(Cc1ccccc1CCCCN1CCCCC1)c1ccccc1 [Example 981, 4-chloro-N-phenyl-N-{2-[4-(1-piperdinyl)butyl]benzyl}benzenesulfonamide hydrochloride] | > 500 nM | –
2 | O=S(=O)(c1ccc(Cl)cc1)N(Cc1ccccc1OCCCSc1ccccc1)c1cc(F)ccc1F [Example 982, 4-chloro-N-(2,5-difluorophenyl)-N-{2-[3-(phenylsulfanyl)propoxy]benzyl}benzenesulfonamide] | – | > 500 nM
3 | O=S(=O)(c1ccc(Cl)cc1)N(Cc1ccccc1OCCCN1CCCCC1)CC1CC1 [Example 984, 4-chloro-N-(cyclopropylmethyl-N-{2-[3-(1-piperidinyl)propoxy]benzyl}benzenesulfonamide hydrochloride] | > 500 nM | –
4 | C=CCN(Cc1ccccc1OCCCN1CCCCC1)S(=O)(=O)c1ccc(Cl)cc1 [Example 985, N-allyl-4-chloro-N-{2-[3-(1-piperidinyl)propoxy]benzyl}benzenesulfonamide hydrochloride] | – | > 500 nM
5 | O=S(=O)(c1ccc(Cl)cc1)N(Cc1ccccc1OCCCN1CCCCC1)C1CCOCC1 [Example 986, 4-chloro-N-{2-[3-(1-piperidinyl)propoxy]benzyl}-N-tetrahydro-2H-pyran-4-ylbenzenesulfonamide hydrochloride] | – | > 500 nM
6 | COC(=O)[C@H](c1ccccc1)N(c1cc(F)ccc1F)S(=O)(=O)c1ccc(Cl)cc1 [Example 987, methyl (2S)-1-{[(4-chlorophenyl)sulfonyl]-2,5-difluoroanilino}(phenyl)ethanoate] | > 500 nM | –
7 | O=S(=O)(c1ccc(Cl)cc1)N(Cc1ccccc1OCCCN1CCCCC1)c1ccc(Br)cc1 [Example 988, N-(4-bromophenyl)-4-chloro-N-{2-[3-(1-piperidinyl)propoxy]benzyl}benzenesulfonamide hydrochloride] | – | > 500 nM
8 | O=S(=O)(c1ccc(Cl)cc1)N(Cc1cc(Cl)ccc1C#CCCN1CCCCC1)c1ccccc1 [Example 990, 4-chloro-N-{5-chloro-2-[4-(1-piperidinyl)-1-butynyl]benzyl}-N-phenylbenzenesulfonamide hydrochloride] | – | > 500 nM
9 | C#Cc1ccccc1CN(c1ccccc1)S(=O)(=O)c1ccc(Cl)cc1 [Example 991, 4-chloro-N-(2-ethynylbenzyl)-N-phenylbenzenesulfonamide] | – | > 500 nM
10 | O=S(=O)(Cc1ccccc1)N(Cc1ccccc1OCCCN1CCCCC1)c1cc(Cl)ccc1Cl [Example 992, N-(2,5-dichlorophenyl)(phenyl)-N-{2-[3-(1-piperidinyl)propoxy]benzyl}methanesulfonamide hydrochloride] | – | > 500 nM
11 | O=S(=O)(c1ccc(Cl)cc1)N(Cc1ccccc1OCCCNC1CCCCC1)c1ccccc1 [Example 996, 4-chloro-N-{2-[3-(cyclohexylamino)propoxy]benzyl}-N-phenylbenzenesulfonamide hydrochloride] | – | > 500 nM
12 | O=[N+]([O-])c1ccc(SCCCOc2ccccc2CN(c2cc(F)ccc2F)S(=O)(=O)c2ccc(Cl)cc2)cc1 [Example 997, 4-chloro-N-(2,5-difluorophenyl)-N-(2-{3-[(4-nitrophenyl)sulfanyl]propoxy}benzyl)benzenesulfonamide] | – | > 500 nM
13 | O=[N+]([O-])c1ccc(CN(Cc2ccccc2OCCCN2CCCCC2)S(=O)(=O)c2ccc(Cl)cc2)cc1 [Example 998, 4-chloro-N-(4-nitrobenzyl)-N-{2-[3-(1-piperidinyl)propoxy]benzyl}benzenesulfonamide hydrochloride] | – | > 500 nM
14 | O=S(=O)(c1ccc(Cl)cc1)N(Cc1ccccc1OCCCN1CCc2ccccc2C1)c1ccccc1 [Example 999, 4-chloro-N-{2-[3-(3,4-dihydro-2(1H)-isoquinolinyl)propoxy]benzyl}-N-phenylbenzenesulfonamide] | – | > 500 nM
15 | C=CCOc1ccccc1CN(c1ccccc1)S(=O)(=O)c1ccc(Cl)cc1 [Example 1001, N-[2-(allyloxy)benzyl]-4-chloro-N-phenylbenzenesulfonamide] | – | > 500 nM
16 | O=S(=O)(c1ccc(Cl)cc1)N(Cc1ccccc1OCCCN1CCCCC1)C1CC1 [Example 1003, 4-chloro-N-cyclopropyl-N-{2-[3-(1-piperidinyl)propoxy]benzyl}benzenesulfonamide hydrochloride] | – | > 500 nM
17 | O=S(=O)(c1ccccc1)N(Cc1ccccc1CCCCN1CCCCC1)c1ccccc1 [Example 1005, N-phenyl-N-{2-[4-(1-piperidinyl)butyl]benzyl}benzenesulfonamide] | – | > 500 nM
18 | O=C(OC[C@H](c1ccccc1)N(c1cc(F)ccc1F)S(=O)(=O)c1ccc(Cl)cc1)c1cccnc1 [Example 1006, (2S)-2-({[(4-chlorophenyl)sulfonyl]-2,5-difluoroanilino}-2-phenylethyl nicotinate] | > 500 nM | –

Row | SMILES | IC50 | IC50 (Homo sapiens, 16 h)
19 | C[C@H](c1ccc(F)cc1CCCC1=NCCCN1)N(c1cc(F)ccc1F)S(=O)(=O)c1ccc(Cl)cc1 [Example 1008, 4-chloro-N-(2,5-difluorophenyl)-N-((1R)-1-{4-fluoro-2-[3-(1,4,5,6-tetrahydro-2-pyrimidinyl)propyl]phenyl}ethyl)benzenesulfonamide hydrochloride] | – | > 500 nM
20 | O=S(=O)(c1ccc(Cl)cc1)N(Cc1cc(Cl)ccc1OCCCN1CCC(O)CC1)c1ccccc1 [Example 1011, 4-chloro-N-{5-chloro-2-[3-(4-hydroxy-1-piperidinyl)propoxy]benzyl}-N-phenylbenzenesulfonamide hydrochloride] | – | > 500 nM
21 | O=S(=O)(c1ccc(Cl)cc1)N(Cc1ccccc1OCCCN1CCCCC1)C1CCc2ccccc21 (stereo not drawn) [Example 1012, 4-chloro-N-(2,3-dihydro-1H-inden-1-yl)-N-{2-[3-(1-piperidinyl)propoxy]benzyl}benzenesulfonamide hydrochloride] | – | > 500 nM
22 | O=S(=O)(c1ccc(Cl)cc1)N(CCc1ccccc1O)c1ccccc1 [Example 1015, 4-chloro-N-[2-(2-hydroxyphenyl)ethyl]-N-phenylbenzenesulfonamide] | – | > 500 nM
23 | O=S(=O)(c1ccc(Cl)cc1)N(Cc1ccccc1CCCCO)c1ccccc1 [Example 1016, 4-chloro-N-[2-(4-hydroxybutyl)benzyl]-N-phenylbenzenesulfonamide] | – | > 500 nM
24 | O=S(=O)(c1ccc(Cl)cc1)N(Cc1ccccc1OCCCS)c1ccccc1 [Example 1018, 4-chloro-N-phenyl-N-[2-(3-sulfanylpropoxy)benzyl]benzenesulfonamide] | – | > 500 nM
25 | CSc1ccc(N(Cc2ccccc2OCCCN2CCCCC2)S(=O)(=O)c2ccc(Cl)cc2)cc1 [Example 1019, 4-chloro-N-[4-(methylsulfanyl)phenyl]-N-{2-[3-(1-piperidinyl)propoxy]benzyl}benzenesulfonamide hydrochloride] | – | > 500 nM
26 | O=S(=O)(c1ccc(Cl)cc1)N(Cc1ccccc1OCCCN1CCCCC1)C1Cc2ccccc2C1 [Example 1020, 4-chloro-N-(2,3-dihydro-1H-inden-2-yl)-N-{2-[3-(1-piperidinyl)propoxy]benzyl}benzenesulfonamide hydrochloride] | – | > 500 nM
27 | CC(C)(C)OC(=O)n1c(-c2ccccc2OCCCN2CCCCC2)cc2ccccc21 [Example 1021, tert-butyl 2-{2-[3-(1-piperidinyl)propoxy]phenyl}-1H-indole-1-carboxylate trifluoroacetate] | – | > 500 nM
28 | CC(=O)Nc1nc(C)c(S(=O)(=O)N(Cc2ccccc2OCCCN2CCCCC2)c2cc(Cl)ccc2Cl)s1 [Example 1022, N-{5-[(2,5-dichloro{2-[3-(1-piperidinyl)propoxy]benzyl}anilino)sulfonyl]-4-methyl-1,3-thiazol-2-yl}acetamide hydrochloride] | > 500 nM | –
29 | O=S1(=O)c2cccc3cccc(c23)N1Cc1ccccc1OCCCN1CCCCC1 [Example 1024, 2-{2-[3-(1-piperidinyl)propoxy]benzyl}-2H-naphtho[1,8-cd]isothiazol 1,1-dioxide hydrochloride] | – | > 500 nM
30 | O=S(=O)(c1ccc(Cl)cc1)N(Cc1c(OCCCN2CCCCC2)ccc2ccccc12)c1cc(F)ccc1F [Example 1025, 4-chloro-N-(2,5-difluorophenyl)-N-(2-{2-[3-(1-piperidinyl)propoxy]-1-naphthyl}methyl)benzenesulfonamide hydrochloride] | > 500 nM | –
31 | O=S(=O)(c1ccc(Cl)cc1)N(Cc1ccccc1OCCCCCCl)c1ccccc1 [Example 1026, 4-chloro-N-{2-[(5-chloropentyl)oxy]benzyl}-N-phenylbenzenesulfonamide] | – | > 500 nM
32 | CS(=O)(=O)c1ccccc1N(Cc1ccccc1OCCCN1CCCCC1)S(=O)(=O)c1ccc(Cl)cc1 [Example 1027, 4-chloro-N-[2-(methylsulfonyl)phenyl]-N-{2-[3-(1-piperidinyl)propoxy]benzyl}benzenesulfonamide hydrochloride] | – | > 500 nM
33 | COc1ccc(SCCCOc2ccccc2CN(c2cc(F)ccc2F)S(=O)(=O)c2ccc(Cl)cc2)cc1 [Example 1029, 4-chloro-N-(2,5-difluorophenyl)-N-(2-{3-[(4-methoxyphenyl)sulfanyl]propoxy}benzyl)benzenesulfonamide] | – | > 500 nM
34 | O=S(=O)(c1ccc(Cl)cc1)N(Cc1ccccc1OCc1ccncc1)c1ccccc1 [Example 1030, 4-chloro-N-phenyl-N-[2-(4-pyrdinylmethoxy)benzyl]benzenesulfonamide hydrochloride] | > 500 nM | –
35 | O=S(=O)(c1ccccc1)N(Cc1ccccc1CCCN1CCCCC1)c1ccccc1 [Example 1031, N-phenyl-N-{2-[3-(1-piperidinyl)propyl]benzyl}benzenesulfonamide] | – | > 500 nM
36 | O=S(=O)(c1ccc(F)cc1)n1c(-c2ccccc2OCCCN2CCCCC2)cc2ccccc21 [Example 1032, 2-{1-[(4-flurophenyl}sulfonyl]-1H-indol-2-yl}phenyl 3-(1-piperidinyl)propyl ether trifluoroacetate] | > 500 nM | –
